The text below walks through data of patent US9365851B2, “Spalt-like transcription factor 4 (SALL4) and uses thereof” (National University of Singapore, priority 2011, dated 2016).

Like-named read-outs stand apart in the source and are kept apart here.

For one experiment, the system named is PC9 cells. In words: Peptide treatment of lung cancer cells. Type of experiment: cell-based. An excerpt: 56B: Cell image after SALL4 knockdown in H522 cells.
A small peptide has been generated to block the oncogenic function of SALL4. […] Therefore, shown herein is that SALL4 plays a crucial role in tumor initiation and development of NSCLC, and targeting SALL4 may provide an innovated therapeutic approach in the treatment of lung cancer.

The subject of a further experiment is primary human AML cells. In words: Xenotransplantation of peptide-treated primary human AML cells into NSG mice. To be noted: 11 weeks after transplantation, cells treated with Pep-1 plus peptide. Type of experiment: in vivo. The procedure:
FIGS. 12A-12F: Treatment of SALL4 peptide in primary human AML cells induces reduced cell viability in culture and impaired leukemic engraftment in vivo. (12A) Wild type peptide treatment reduces cell viability of human AML cells in culture, and this effect can be reversed in part by the PTEN inhibitor SF1670. 1×10^6 AML cells were treated with nothing (None), Pep-1 alone (Mock), or 20 μM wild type (wt), or scrambled peptide (scr), or wt peptide with 400 nM PTEN inhibitor SF1670 (wt+inh) or with 100 nM TSA for 48 hours, as described in the Methods. Cell viability of untreated primary AML cells is set as 100. […] Percentage of human CD45+ cells engrafted in BM, spleen (SP) and peripheral blood (PB) was determined by flow cytometry. […]
NSG (NOD.Cg-Prkdcscid Il2rgtm 1Wjl/SzJ, The Jackson Laboratory, ME, USA) mice were bred and maintained in the Children's Hospital Boston animal facility. […] The percentage of human CD45+ cells was calculated as follows: % human CD45+ cells=No. human CD45+ cells/(No. human CD45+ cells+No. mouse CD45+ cells)×100. […]
Subsequently tested was the ability of peptide treatment to inhibit the development of AML in vivo utilizing xenografts. […] In addition, the engraftment of human CD45+ cells was evaluated by flow cytometry (FIG. 12E). […]

Take “Scr peptide: same 12 amino acids as the wt peptide, but in a scrambled sequence; negative control (SRMRQKIHPKIQ) [reference compound]”: the “cell growth / cell death” value with PC9 cells is “no effect on the cells”. For the same substance, the “average engraftment of human CD45+ cells in bone marrow” value in the experiment on primary human AML cells was “greater than 74%”.

For “H-MSRRKQAKPQHI-OH [wt peptide, MSRRKQAKPQHI]”, the results for the “cell growth / cell death” value with PC9 cells (listed as Wt) and in the experiment with PC9 cells (listed as small peptide) were “cell growth arrest” and “resulted in cell death”, respectively. In addition, the “average engraftment of human CD45+ cells in bone marrow” value in the experiment with primary human AML cells stood at 0.5%.
